Measurements reported in the NIST ThermoML archive (doi:10.1016/j.tca.2006.04.016).

Test: xn = mol fraction of the nth substance listed
Conditions: 101 kPa, Liquid, Vibrating tube method, x1 = 1

O [water] + CN(C)CCCN
Conditions	mass density [kg/m3]
283.15 K	999.7
323.15 K	988.03
328.15 K	985.69
333.15 K	983.191
338.15 K	980.55
343.15 K	977.76
348.15 K	974.84
353.15 K	971.79
